Data published in patent US20250367209A1 (SOUTHERN RESEARCH INSTITUTE, priority 2022, published 2025).
“Also recorded” adds a separate entry of the source.

Legend:
primary rat neurons = assay: MAP2 ICC assay of Aβ-induced neurite degeneration; assay type: cell-based; details: compound 0.3, 3 or 15 μM, 90-minute pretreatment, 2.5 μM Aβ
Description: Primary neuron cultures: All animal procedures were approved by the Institutional Animal Care and Use Committee at the University of Alabama at Birmingham (UAB). As before (Rush, et al. (2020) Neurobiol Dis 134, 104668; Voskobiynyk, et al. (2020) eLife 9, e57354), primary rat neurons were isolated from timed-pregnant Sprague-Dawley rats. Briefly, dams were euthanized with isoflurane anesthesia asphyxiation, and hippocampal tissue was isolated from E19 embryos in Hibernate E, then digested in papain for 10 minutes at 37° C. Neurons were triturated into a single cell suspension in Neurobasal supplemented with B-27, L-Glutamine, and 10% FBS, then plated in 96-well plates coated with PDL and laminin at 30,000 neurons per well in 200 uL medium or in 24-well coated plates with or without coverslips at 50,000 per well. Cultures were maintained at 37° C. with 5% CO2. Twenty-four hours after plating (DIV1), two 50% media changes with Neurobasal plus B-27 and L-Glutamine without FBS, and 5 μM cytosine β-D-arabinofuranoside was added to prevent glial proliferation. […]
For the MAP2 ICC assay, neurons were fixed in 4% PFA and 4% sucrose at 37° C. for 30 minutes, then washed 3×5 minutes in PBS. […] Intact neurite length was measured in an unbiased, automated manner using Harmony software, averaged from four images from each well. […]

Tau-SrcSH3 interaction = Tau-SrcSH3 interaction (Homo sapiens (Human), UniProt P10636); assay: Tau-Flag PLA, Tau-SrcSH3; assay type: cell-based; details: 15 μM, HEK-293 cells
Description: Tau-Flag PLA for Tau-SH3 interactions: To clone the SH3 constructs, a C-terminal Flag tag was added to the Tau construct using PCR, then the Tau sequence was replaced with the desired SH3 domain using In-Fusion HD cloning kit (Takara Bio). Next, an N-terminal GST tag was added to help expression using In-Fusion, resulting in GST-SH3-Flag plasmids. As a negative control, restriction enzymes were used to remove the FynSH3 from the FynSH3 construct, resulting in GST-Flag. All sequences were confirmed with Sanger sequencing, and expression in HEK-293 cells was verified by western blot and immunocytochemistry. Plating and experimental timeline was the same as above. Cells were transfected with 125 ng of Tau-mKate2 and 500 ng SH3 plasmid with 1.5 μL Fugene. compound no. 69 was applied to final concentration 15 μM. For Tau-SH3 PLA, we used Dako Tau (1:1000) and Flag (1:1000) primary antibodies.

Sequence of Tau-SrcSH3 interaction (P10636 other isoform, or with tags, fused parts or gaps): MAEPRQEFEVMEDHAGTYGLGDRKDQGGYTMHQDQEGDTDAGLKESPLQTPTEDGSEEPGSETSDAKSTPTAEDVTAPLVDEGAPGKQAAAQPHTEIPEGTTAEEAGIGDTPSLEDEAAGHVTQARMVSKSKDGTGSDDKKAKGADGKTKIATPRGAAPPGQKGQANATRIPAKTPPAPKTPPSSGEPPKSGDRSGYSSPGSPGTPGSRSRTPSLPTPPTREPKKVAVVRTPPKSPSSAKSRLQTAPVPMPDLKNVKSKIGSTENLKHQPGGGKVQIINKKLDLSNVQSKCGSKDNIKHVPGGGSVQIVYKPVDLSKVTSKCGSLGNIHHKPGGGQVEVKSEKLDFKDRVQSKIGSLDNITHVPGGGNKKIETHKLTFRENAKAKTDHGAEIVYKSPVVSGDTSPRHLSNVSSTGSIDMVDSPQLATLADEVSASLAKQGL

Structure (SMILES) | Aβ-induced neurite degeneration, MAP2 assay (primary rat neurons) | Tau-SrcSH3 interaction, Tau-Flag PLA (Tau-SrcSH3 interaction)
O=C(CCN1C(=O)CSc2ccccc21)Nc1nnc(-c2ccccn2)[nH]1 [compound no. 55] | prevented Aβ-induced neurite degeneration; also recorded: ameliorates Aβ-induced neurite degeneration | 
O=C(CN1CCOc2ccccc21)Nc1nnc(-c2ccccn2)[nH]1 [compound no. 69] | prevented; also recorded: ameliorates Aβ-induced neurite degeneration | slightly but insignificantly inhibited; also recorded: does not inhibit Tau-SrcSH3 interaction
